These results are taken from patent EP0240391A1, “Silver salt derived from naphthyridine, useful as a bactericide, process for its preparation and compositions containing it” (EDMOND PHARMA S.R.L., priority 1986, dated 1987).

Bounds are passed on as bounds.

In one series the test system is Escherichia coli. Nature of the series: In vitro antibacterial activity, MIC (CMI) by agar dilution method. The class given is cell-based. As to conditions: 5 strains. The text has this:
(§1) Pour l'évaluation des activités antibactérienne et antifongique ont été testées 24 souches de bactéries et 11 de champignons isolées de matériel pathologique humain récent ou provenant de collections internationales, ainsi subdivisées :
(§2) Pour l'activité in vitro on a déterminé la CMI par la méthode des dilutions (milieu agar) selon la technique classique.
(§3) La solution mère des produits à tester (composé de formule I et acide libre de départ) a été préparée par dissolution dans le diméthylsulfoxyde et addition d'eau distillée dans le rapport 1 : 1O. Les solutions ultérieures ont été préparées par dilution avec de l'eau distillée ou avec le terrain minimum essential d'Eagle contenant 3 % de serum de veau.
(§4) Les concentrations ont été exprimées en µg de substance active, calculée comme acide libre, par ml de milieu.
(§5) Le tableau I montre l'activité antibactérienne in vitro du sel d'argent de formule I ci-dessus (Composé I) et de l'acide libre correspondant (Acide libre), exprimée par le nombre de souches sensibles aux produits testés à des concentrations de 3O à O,O1 µg/ml.
(Agar dilution tests growth on a series of plates holding different concentrations.)

Another series deals with Pseudomonas aeruginosa. Described as above. The settings on record: 4 strains. The class given is cell-based.
Source text: as §1, §2, §3, §4, §5

In series [1] the test system is Staphylococcus aureus (pen. rés.). The series is described as above. The class given is cell-based. The settings on record: 2 penicillin-resistant strains.
Source text: as §1, §2, §3, §4, §5

Another series has as its system Staphylococcus aureus. The series is described as above. Type of series: cell-based. As to conditions: 4 strains.
Source text: as §1, §2, §3, §4, §5

Series [2] has as its system Streptococcus epidermidis. The description is as above. The class given is cell-based. As to conditions: 3 strains.
Source text: as §1, §2, §3, §4, §5

A further series has as its system Streptococcus faecalis. Described as above. Type of series: cell-based. As to conditions: 2 strains.
Source text: as §1, §2, §3, §4, §5

The next series has as its system Streptococcus pyogenes. The series is described as above. The class given is cell-based. The settings on record: 4 strains.
Source text: as §1, §2, §3, §4, §5

The subject of the next series is Candida albicans. The series is described as follows: In vitro antifungal activity, MIC (CMI) by agar dilution method. Type of series: cell-based. As to conditions: for nombre de souches sensibles aux concentrations suivantes (en µg/ml): 5 strains.
Source text: as §1, §2, §3, §4

Series [3] has as its system Trichophyton mentagrophytes. Described as above. The class given is cell-based. The settings on record: for nombre de souches sensibles aux concentrations suivantes (en µg/ml): 4 strains.
Source text: as §1, §2, §3, §4

The subject of a further series is Trichophyton rubrum. Described as above. Type of series: cell-based. As to conditions: for nombre de souches sensibles aux concentrations suivantes (en µg/ml): 2 strains.
Source text: as §1, §2, §3, §4

Series [4] is described as follows: Photosensitivity compared with other antibacterial silver salts. Type of series: physicochemical. The settings on record: e.g. sel d'argent de la sulfadiazine, solid state and in solution.
The conditions of series [5]: compared with the corresponding free acid; from European patent 49593; cited from earlier work.

In the case of “sel d'argent de l'acide 1-éthyl-6-fluoro-1,4-dihydro-4-oxo-7-(1-pipérazinyl)-1,8-naphtyridine-3-carboxylique [Composé I]”, the “Nombre de souches sensibles aux concentrations suivantes (µg/ml)” value is reported as 2 with Escherichia coli (0,1 µg/ml (as free acid)); 1 with Escherichia coli (0,03 µg/ml (as free acid)); 2 in the series on Escherichia coli (0,3 µg/ml (as free acid)); 3 with Pseudomonas aeruginosa (0,1 µg/ml (as free acid)); 1 with Pseudomonas aeruginosa (0,03 µg/ml (as free acid)); 1 in series [1] (0,1 µg/ml (as free acid)). Moreover, the “Nombre de souches sensibles aux concentrations suivantes (µg/ml)” value in series [1] (0,3 µg/ml (as free acid)) is 1; with Staphylococcus aureus (0,1 µg/ml (as free acid)), 3; in the series with Staphylococcus aureus (0,3 µg/ml (as free acid)), 1; in [2] (0,3 µg/ml (as free acid)), 1; in [2] (1 µg/ml (as free acid)), 1; in series [2] (3 µg/ml (as free acid)) it was 1. The “Nombre de souches sensibles aux concentrations suivantes (µg/ml)” value in the series with Streptococcus faecalis (1 µg/ml (as free acid)) is 1; with Streptococcus faecalis (3 µg/ml (as free acid)), 1; in the series with Streptococcus pyogenes (1 µg/ml (as free acid)), 1; with Streptococcus pyogenes (3 µg/ml (as free acid)), 2; in the series on Streptococcus pyogenes (10 µg/ml (as free acid)), 1. Besides, the “nombre de souches sensibles aux concentrations suivantes (en µg/ml)” value turned out to be 1 with Candida albicans (3 µg/ml (as free acid)); 3 with Candida albicans (10 µg/ml (as free acid)); 1 in the series on Candida albicans (30 µg/ml (as free acid)); 1 in series [3] (3 µg/ml (as free acid)); 2 in [3] (10 µg/ml (as free acid)); 1 in series [3] (30 µg/ml (as free acid)). The “nombre de souches sensibles aux concentrations suivantes (en µg/ml)” value in the series with Trichophyton rubrum (10 µg/ml (as free acid)) and with Trichophyton rubrum (30 µg/ml (as free acid)) was 1 throughout. For the same molecule, the photosensibilité entry in [4] is “moins photosensible”.

As to `CCn1cc(C(=O)O)c(=O)c2cc(F)c(N3CCNCC3)nc21` [Acide libre, acide 1-éthyl-6-fluoro-1,4-dihydro-4-oxo-7-(1-pipérazinyl)-1,8-naphtyridine-3-carboxylique, reference compound], the “Nombre de souches sensibles aux concentrations suivantes (µg/ml)” value with Escherichia coli (0,1 µg/ml (as free acid)) is 2; in the series on Escherichia coli (0,03 µg/ml (as free acid)), 1; in the series on Escherichia coli (0,3 µg/ml (as free acid)), 2; in the series with Pseudomonas aeruginosa (0,3 µg/ml (as free acid)), 3; in the series on Pseudomonas aeruginosa (1 µg/ml (as free acid)) it was 1; in series [1] (0,3 µg/ml (as free acid)), 1. For the same molecule, the “Nombre de souches sensibles aux concentrations suivantes (µg/ml)” value in [1] (1 µg/ml (as free acid)) amounted to 1; in the series on Staphylococcus aureus (0,1 µg/ml (as free acid)), 1; in the series with Staphylococcus aureus (1 µg/ml (as free acid)), 2; in series [2] (3 µg/ml (as free acid)) it was 2; in series [2] (10 µg/ml (as free acid)) it was 1; with Streptococcus faecalis (10 µg/ml (as free acid)), 1. Moreover, the “Nombre de souches sensibles aux concentrations suivantes (µg/ml)” value in the series with Streptococcus faecalis (30 µg/ml (as free acid)) amounted to 1; in the series on Streptococcus pyogenes (1 µg/ml (as free acid)), 1; with Streptococcus pyogenes (3 µg/ml (as free acid)), 1; in the series on Streptococcus pyogenes (10 µg/ml (as free acid)), 2. The MIC with Candida albicans (Candida albicans, same 5 strains as Table II, read-out: activité antifongique: inactif jusqu'à des concentrations de) was over 1 µg/mL; in [3] (Trichophyton mentagrophytes, same 4 strains as Table II, read-out: activité antifongique: inactif jusqu'à des concentrations de), over 1 µg/mL; in the series on Trichophyton rubrum (Trichophyton rubrum, same 2 strains as Table II, read-out: activité antifongique: inactif jusqu'à des concentrations de), over 1 µg/mL.

Regarding “sel d'argent de l'acide 1-éthyl-6-fluoro-1,4-dihydro-4-oxo-7-(1-pipérazinyl)-quinolinyl-3-carboxilique”, the “activité antibactérienne” value in [5] is on record as “du même ordre que celle de l'acide libre correspondant”.
